# Results published in PubChem BioAssay (NCI).
#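 The compound was tested at five concentrations on cells cultured in 96-well plates, with a 48-hour exposure period. TGI denotes the concentration required for complete inhibition of growth.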
# Tested on: SNB-75 CNS
# Experiment: growth of human tumour cells (NCI), 48 h
row,Compound,TGI
1,CCCCCCCCCCCCCCCCNC(=O)/C(=C\c1ccc(Cl)c(Cl)c1)NC(=O)c1ccccc1,33.1 µM
2,O=C(Nc1ccccc1)OCCN=C1c2ccccc2CCc2ccccc21,> 100 µM
3,O=C(Cn1c2ccc(Br)cc2c2nc3ccccc3nc21)Nc1ccccc1,89.4 µM
4,Cc1cc(O)c(/C=N/C(=S)Nc2ccc(S(N)(=O)=O)cc2)c(=O)o1,> 100 µM
5,Cc1nn(C(=O)c2ccncc2)c2c1C(c1ccccc1[N+](=O)[O-])SC(N)=N2 (stereo not given),> 10 µM
6,Cn1nnc2c3c(N(CCO)CCO)ccnc3ccc21,> 100 µM
7,CC(Oc1ccccc1Cl)C(=O)NN1C(=O)CC(=O)N(c2ccc(Cl)cc2)C1=S (stereo not given),> 100 µM
8,Cc1ccc(S(=O)(=O)N2CCSCCSCCSCCN(S(=O)(=O)c3ccc(C)cc3)CC2)cc1,> 100 µM
9,CC(Oc1ccc(Cl)cc1Cl)C(=O)NN1C(=O)CC(=O)N(c2ccccc2)C1=S (stereo not given),> 100 µM
10,CC(=O)/C(=C\I)c1ccccc1,20.3 µM
11,CCOC(=O)c1c[nH]c(C(=O)C=[N+]=[N-])c1C1CCN(CC)C1=S (stereo not given),> 100 µM
12,CC(=O)N1C(Nc2nccs2)CCN1c1ccccc1 (stereo not given),> 10 µM
13,O=c1[nH][nH]c(=O)c2c1ccc1oc3ccccc3c12,> 100 µM
14,O=C1CSC(c2ccccc2O)N1c1ccc(-n2c(-c3ccccc3)nc3ccccc3c2=O)cc1 (stereo not given),> 100 µM
15,O=C1NC2(CCNCC2)Oc2ccccc21,> 100 µM
16,CC(C)OP(=O)(OC(C)C)C(C)(C)O,> 100 µM
17,COc1cc(C2c3cc4c(cc3C(=O)C3CCC(=O)N32)OCO4)cc(OC)c1O (stereo not given),> 50 µM

# Tested on: SR leukemia
# Experiment: growth of human tumour cells (NCI), 48 h
row,Compound,TGI
1,CCCCCCCCCCCCCCCCNC(=O)/C(=C\c1ccc(Cl)c(Cl)c1)NC(=O)c1ccccc1,90.7 µM
2,O=C(Nc1ccccc1)OCCN=C1c2ccccc2CCc2ccccc21,38.9 µM
3,CC(C)[C@H]1NC(=O)[C@H]2N=C(S[C@H]2C)[C@@H]2CCCN2C(=O)[C@H](Cc2ccccc2)NC(=O)[C@@H]2CSC(=N2)[C@@H](Cc2ccccc2)NC(=O)[C@@H]2CSC1=N2,19.7 µM
4,COC(=O)/C=C/[C@@H]1[C@H](C)N1S(=O)(=O)c1ccc(C)cc1 (stereo not given in full),> 100 µM
5,Cc1nn(C(=O)c2ccncc2)c2c1C(c1ccccc1[N+](=O)[O-])SC(N)=N2 (stereo not given),> 10 µM
6,Cn1nnc2c3c(N(CCO)CCO)ccnc3ccc21,> 100 µM
7,CC(Oc1ccccc1Cl)C(=O)NN1C(=O)CC(=O)N(c2ccc(Cl)cc2)C1=S (stereo not given),54.4 µM
8,CC(Oc1ccc(Cl)cc1Cl)C(=O)NN1C(=O)CC(=O)N(c2ccccc2)C1=S (stereo not given),22.4 µM
9,CC(=O)N1C(Nc2nccs2)CCN1c1ccccc1 (stereo not given),> 10 µM
10,O=c1[nH][nH]c(=O)c2c1ccc1oc3ccccc3c12,> 100 µM
11,O=C1CSC(c2ccccc2O)N1c1ccc(-n2c(-c3ccccc3)nc3ccccc3c2=O)cc1 (stereo not given),> 100 µM
12,O=C1NC2(CCNCC2)Oc2ccccc21,> 100 µM
13,CC(C)OP(=O)(OC(C)C)C(C)(C)O,> 100 µM
14,COc1cc(C2c3cc4c(cc3C(=O)C3CCC(=O)N32)OCO4)cc(OC)c1O (stereo not given),> 50 µM

# Tested on: SW-620 colon
# Experiment: growth of human tumour cells (NCI), 48 h
row,Compound,TGI
1,CCCCCCCCCCCCCCCCNC(=O)/C(=C\c1ccc(Cl)c(Cl)c1)NC(=O)c1ccccc1,> 100 µM
2,O=C(Nc1ccccc1)OCCN=C1c2ccccc2CCc2ccccc21,> 100 µM
3,CC(C)[C@H]1NC(=O)[C@H]2N=C(S[C@H]2C)[C@@H]2CCCN2C(=O)[C@H](Cc2ccccc2)NC(=O)[C@@H]2CSC(=N2)[C@@H](Cc2ccccc2)NC(=O)[C@@H]2CSC1=N2,> 50 µM
4,O=C(Cn1c2ccc(Br)cc2c2nc3ccccc3nc21)Nc1ccccc1,66.8 µM
5,COC(=O)/C=C/[C@@H]1[C@H](C)N1S(=O)(=O)c1ccc(C)cc1 (stereo not given in full),> 100 µM
6,COc1cc([C@@H]2c3cc4c(cc3[C@@H](Nc3ccc(Cl)cc3C(=O)c3ccccc3)[C@H]3COC(=O)[C@H]23)OCO4)cc(OC)c1OC,> 100 µM
7,Cc1cc(O)c(/C=N/C(=S)Nc2ccc(S(N)(=O)=O)cc2)c(=O)o1,> 100 µM
8,Cc1nn(C(=O)c2ccncc2)c2c1C(c1ccccc1[N+](=O)[O-])SC(N)=N2 (stereo not given),> 10 µM
9,Cn1nnc2c3c(N(CCO)CCO)ccnc3ccc21,> 100 µM
10,CC(Oc1ccccc1Cl)C(=O)NN1C(=O)CC(=O)N(c2ccc(Cl)cc2)C1=S (stereo not given),> 100 µM
11,Cc1ccc(S(=O)(=O)N2CCSCCSCCSCCN(S(=O)(=O)c3ccc(C)cc3)CC2)cc1,> 100 µM
12,CC(Oc1ccc(Cl)cc1Cl)C(=O)NN1C(=O)CC(=O)N(c2ccccc2)C1=S (stereo not given),> 100 µM
13,CC(=O)/C(=C\I)c1ccccc1,2.82 µM
14,CCOC(=O)c1c[nH]c(C(=O)C=[N+]=[N-])c1C1CCN(CC)C1=S (stereo not given),> 100 µM
15,CC(=O)N1C(Nc2nccs2)CCN1c1ccccc1 (stereo not given),> 10 µM
16,O=c1[nH][nH]c(=O)c2c1ccc1oc3ccccc3c12,> 100 µM
17,O=C1CSC(c2ccccc2O)N1c1ccc(-n2c(-c3ccccc3)nc3ccccc3c2=O)cc1 (stereo not given),> 100 µM
18,O=C1NC2(CCNCC2)Oc2ccccc21,> 100 µM
19,CC(C)OP(=O)(OC(C)C)C(C)(C)O,> 100 µM
20,COc1cc(C2c3cc4c(cc3C(=O)C3CCC(=O)N32)OCO4)cc(OC)c1O (stereo not given),> 50 µM

# Tested on: TK-10 renal
# Experiment: growth of human tumour cells (NCI), 48 h
row,Compound,TGI
1,CCCCCCCCCCCCCCCCNC(=O)/C(=C\c1ccc(Cl)c(Cl)c1)NC(=O)c1ccccc1,48.8 µM
2,O=C(Nc1ccccc1)OCCN=C1c2ccccc2CCc2ccccc21,> 100 µM
3,CC(C)[C@H]1NC(=O)[C@H]2N=C(S[C@H]2C)[C@@H]2CCCN2C(=O)[C@H](Cc2ccccc2)NC(=O)[C@@H]2CSC(=N2)[C@@H](Cc2ccccc2)NC(=O)[C@@H]2CSC1=N2,> 50 µM
4,O=C(Cn1c2ccc(Br)cc2c2nc3ccccc3nc21)Nc1ccccc1,> 100 µM
5,COC(=O)/C=C/[C@@H]1[C@H](C)N1S(=O)(=O)c1ccc(C)cc1 (stereo not given in full),> 100 µM
6,COc1cc([C@@H]2c3cc4c(cc3[C@@H](Nc3ccc(Cl)cc3C(=O)c3ccccc3)[C@H]3COC(=O)[C@H]23)OCO4)cc(OC)c1OC,> 100 µM
7,Cc1cc(O)c(/C=N/C(=S)Nc2ccc(S(N)(=O)=O)cc2)c(=O)o1,> 100 µM
8,Cc1nn(C(=O)c2ccncc2)c2c1C(c1ccccc1[N+](=O)[O-])SC(N)=N2 (stereo not given),> 10 µM
9,Cn1nnc2c3c(N(CCO)CCO)ccnc3ccc21,> 100 µM
10,CC(Oc1ccccc1Cl)C(=O)NN1C(=O)CC(=O)N(c2ccc(Cl)cc2)C1=S (stereo not given),> 100 µM
11,Cc1ccc(S(=O)(=O)N2CCSCCSCCSCCN(S(=O)(=O)c3ccc(C)cc3)CC2)cc1,> 100 µM
12,CC(Oc1ccc(Cl)cc1Cl)C(=O)NN1C(=O)CC(=O)N(c2ccccc2)C1=S (stereo not given),> 100 µM
13,CC(=O)/C(=C\I)c1ccccc1,26.8 µM
14,CCOC(=O)c1c[nH]c(C(=O)C=[N+]=[N-])c1C1CCN(CC)C1=S (stereo not given),> 100 µM
15,CC(=O)N1C(Nc2nccs2)CCN1c1ccccc1 (stereo not given),> 10 µM
16,O=c1[nH][nH]c(=O)c2c1ccc1oc3ccccc3c12,> 100 µM
17,O=C1CSC(c2ccccc2O)N1c1ccc(-n2c(-c3ccccc3)nc3ccccc3c2=O)cc1 (stereo not given),> 100 µM
18,O=C1NC2(CCNCC2)Oc2ccccc21,> 100 µM
19,CC(C)OP(=O)(OC(C)C)C(C)(C)O,> 100 µM

# Tested on: UACC-257 melanoma
# Experiment: growth of human tumour cells (NCI), 48 h
row,Compound,TGI
1,CCCCCCCCCCCCCCCCNC(=O)/C(=C\c1ccc(Cl)c(Cl)c1)NC(=O)c1ccccc1,> 100 µM
2,O=C(Nc1ccccc1)OCCN=C1c2ccccc2CCc2ccccc21,54.2 µM
3,CC(C)[C@H]1NC(=O)[C@H]2N=C(S[C@H]2C)[C@@H]2CCCN2C(=O)[C@H](Cc2ccccc2)NC(=O)[C@@H]2CSC(=N2)[C@@H](Cc2ccccc2)NC(=O)[C@@H]2CSC1=N2,> 50 µM
4,O=C(Cn1c2ccc(Br)cc2c2nc3ccccc3nc21)Nc1ccccc1,> 100 µM
5,COC(=O)/C=C/[C@@H]1[C@H](C)N1S(=O)(=O)c1ccc(C)cc1 (stereo not given in full),> 100 µM
6,COc1cc([C@@H]2c3cc4c(cc3[C@@H](Nc3ccc(Cl)cc3C(=O)c3ccccc3)[C@H]3COC(=O)[C@H]23)OCO4)cc(OC)c1OC,> 100 µM
7,Cc1cc(O)c(/C=N/C(=S)Nc2ccc(S(N)(=O)=O)cc2)c(=O)o1,> 100 µM
8,Cc1nn(C(=O)c2ccncc2)c2c1C(c1ccccc1[N+](=O)[O-])SC(N)=N2 (stereo not given),> 10 µM
9,Cn1nnc2c3c(N(CCO)CCO)ccnc3ccc21,> 100 µM
10,CC(Oc1ccccc1Cl)C(=O)NN1C(=O)CC(=O)N(c2ccc(Cl)cc2)C1=S (stereo not given),> 100 µM
11,Cc1ccc(S(=O)(=O)N2CCSCCSCCSCCN(S(=O)(=O)c3ccc(C)cc3)CC2)cc1,> 100 µM
12,CC(Oc1ccc(Cl)cc1Cl)C(=O)NN1C(=O)CC(=O)N(c2ccccc2)C1=S (stereo not given),> 100 µM
13,CC(=O)/C(=C\I)c1ccccc1,15.5 µM
14,CCOC(=O)c1c[nH]c(C(=O)C=[N+]=[N-])c1C1CCN(CC)C1=S (stereo not given),> 100 µM
15,CC(=O)N1C(Nc2nccs2)CCN1c1ccccc1 (stereo not given),> 10 µM
16,O=c1[nH][nH]c(=O)c2c1ccc1oc3ccccc3c12,> 100 µM
17,O=C1CSC(c2ccccc2O)N1c1ccc(-n2c(-c3ccccc3)nc3ccccc3c2=O)cc1 (stereo not given),82.2 µM
18,O=C1NC2(CCNCC2)Oc2ccccc21,> 100 µM
19,CC(C)OP(=O)(OC(C)C)C(C)(C)O,> 100 µM
20,COc1cc(C2c3cc4c(cc3C(=O)C3CCC(=O)N32)OCO4)cc(OC)c1O (stereo not given),> 50 µM
